What was measured:
fucosyl transferase = assay: 2AB glycan analysis of trastuzumab biosimilar isolated from CHO cells treated with 2F-Peracetyl-Fucose (FTI); type: cell-based, Chinese Hamster
Procedure: Chromatography by HPLC or UPLC is another powerful method to analyze recombinant proteins. For example, glycan species can he quantitated using a fluorescent 2AB labeling method. In this method, glycans are first removed from the protein by digestion with N-glycanase and then a fluorescent label is added to each glycan. The glycans can then be resolved using HILIC based chromatography and quantitated by measuring relative area under the curve. For oxidation quantitation an HIC based method can be used.
To obtain a recipe for production of a biosimilar with a similar glycosylation pattern to the original Herceptin®, CHO cells engineered to express the recombinant protein with an amino acid sequence identical to trastuzumab were first grown in the growth media without any inhibitors to establish a baseline. The glycan Species were analyzed using 2AB glycan method. It was observed that Peak 2 (G0) and Peak 6 (G1), and Peak 7 (mannose-5 and G1′) modifications were lower for the biosimilar than their target profile.
G0, G1 and G1′ modifications are non-fucosylated modifications and are controlled by a host protein called fucosyl transferase and the mannose-5 modification is controlled by the host protein known as α-mannosidase 1. Fucosyl transferase can be inhibited by a variety of fucosyltransferase inhibitors shown in FIG. 2, α-mannosidase 1 can be inhibited by kifunensine.
Briefly to obtain trastuzumab with modifications in the target range, cells were placed in growth media and treated with 2F-Peracetyl-Fucose (FTI) on day 7 at different concentrations (20 μM. 10 μM, 5 μM, 1 μM, 0.1 μM) to identify optimal drug concentration. On day 12 cells were harvested and the trastuzumab biosimilar isolated. […] FTI concentrations used to reach target profile are cell specific so it is expected that different concentrations of the FTI or other modulators would be required when a starting cell line is different from the one described in this example.
Different treatment methods such as Method 2 can be used to obtain target profile. For example, FTI can be added on a daily basis starting on day 5 (Table 3, Method 2) rather than on Day 7.

α-mannosidase I = assay: 2AB glycan analysis of trastuzumab biosimilar isolated from CHO cells treated with kifunensine (KFI), with FTI; type: cell-based, Chinese Hamster; conditions: treated on Day 7; tested about 0.001 ng/ml-100 ng/ml
Procedure: Chromatography by HPLC or UPLC is another powerful method to analyze recombinant proteins. For example, glycan species can he quantitated using a fluorescent 2AB labeling method. In this method, glycans are first removed from the protein by digestion with N-glycanase and then a fluorescent label is added to each glycan. The glycans can then be resolved using HILIC based chromatography and quantitated by measuring relative area under the curve. For oxidation quantitation an HIC based method can be used. To obtain a recipe for production of a biosimilar with a similar glycosylation pattern to the original Herceptin®, CHO cells engineered to express the recombinant protein with an amino acid sequence identical to trastuzumab were first grown in the growth media without any inhibitors to establish a baseline. The glycan Species were analyzed using 2AB glycan method. It was observed that Peak 2 (G0) and Peak 6 (G1), and Peak 7 (mannose-5 and G1′) modifications were lower for the biosimilar than their target profile. G0, G1 and G1′ modifications are non-fucosylated modifications and are controlled by a host protein called fucosyl transferase and the mannose-5 modification is controlled by the host protein known as α-mannosidase 1. Fucosyl transferase can be inhibited by a variety of fucosyltransferase inhibitors shown in FIG. 2, α-mannosidase 1 can be inhibited by kifunensine. […]

[1] = Method 2 - […]-[…] FTI every day starting at day 5

CC(=O)OC1O[C@@H](C)[C@@H](OC(C)=O)[C@@H](OC(C)=O)[C@@H]1F (some centres unmarked) [FTI, 2F-Peracetyl-Fucose]
G0, G1 and G1′ levels versus target PTM range (fucosyl transferase; 10 μM FTI on day 7, harvest day 12): matched the target PTM range | G0, G1 and G1′ levels versus target PTM range (fucosyl transferase; 20 μM FTI on day 7, harvest day 12): increase of G0, G1 and G1′ PTMs above that of target PTMs | modifications versus target range (fucosyl transferase; FTI at concentrations lower than 8 μM): outside the target range | Glycan Species Peak 2-G0 (fucosyl transferase; Method 1 - 10 μM FTI - Day 7): 4% | Glycan Species Peak 3 (fucosyl transferase; Method 1 - 10 μM FTI - Day 7): 1.5% | Glycan Species Peak 4-G0F (fucosyl transferase; Method 1 - 10 μM FTI - Day 7): 44% | Glycan Species Peak 5 (fucosyl transferase; Method 1 - 10 μM FTI - Day 7): 0.8% | Glycan Species Peak 6-G1 (fucosyl transferase; Method 1 - 10 μM FTI - Day 7): 1.8% | Glycan Species Peak 7- G1F/mannose 5 (fucosyl transferase; Method 1 - 10 μM FTI - Day 7): 1.2% | Glycan Species Peak 8- (1,6)G1F (fucosyl transferase; Method 1 - 10 μM FTI - Day 7): 26% | Glycan Species Peak 9 (1,3)G1F (fucosyl transferase; Method 1 - 10 μM FTI - Day 7): 11% | Glycan Species Peak 10 G2F (fucosyl transferase; Method 1 - 10 μM FTI - Day 7): 6.5% | Glycan Species Peak 11 (fucosyl transferase; Method 1 - 10 μM FTI - Day 7): 0.2% | Glycan Species Peak 12 (fucosyl transferase; Method 1 - 10 μM FTI - Day 7): 0.25% | Glycan Species Peak 13 (fucosyl transferase; Method 1 - 10 μM FTI - Day 7): 0.2% | Glycan Species Peak 14 (fucosyl transferase; Method 1 - 10 μM FTI - Day 7): 0.2% | Glycan Species Peak 15 (fucosyl transferase; Method 1 - 10 μM FTI - Day 7): 0.2% | Glycan Species Peak 1 (fucosyl transferase; Method 1 - 10 μM FTI - Day 7, trastuzumab biosimilar, harvest day 12): 1.5% | Glycan Species Peak 4-G0F (fucosyl transferase; [1]): 44% | Glycan Species Peak 8- (1,6)G1F (fucosyl transferase; [1]): 26% | Glycan Species Peak 9 (1,3)G1F (fucosyl transferase; [1]): 11% | Glycan Species Peak 10 G2F (fucosyl transferase; [1]): 6.5%

O=C1N[C@@H]2[C@@H](O)[C@@H](O)[C@H](O)[C@@H](CO)N2C1=O [kifunensine]
ideal concentration for optimization of the mannose species (α-mannosidase I): 1 to 10 ng/mL

From patent US20180180626A1, “A METHOD FOR DEVELOPMENT OF RECOMBINANT PROTEINS WITH FINGERPRINT LIKE SIMILARITY TO THE REFERENCE PRODUCT” (STC Biologics, Inc., priority 2014, published 2018)
